{
  "source": "paper PMC10763817",
  "about": "“Development of dual enzyme responsive molecular AND logic gate” (Turkish Journal of Chemistry, 2021)",
  "tested_on": "T1, tyrosinase (mushroom tyrosinase, EC 1.14.18.1)",
  "T1 construct": "gene PPO3; commercial native enzyme from mushroom (Sigma)",
  "experiment": "fluorescence of released resorufin (ex […] nm, em […] nm), Lineweaver-Burk plot",
  "format": "biochemical",
  "conditions": "tyrosinase 3 U/mL alone, no esterase; 10-50 μM compound 2; PBS pH 7.4, 37 °C",
  "data": [
    {"smiles": "CC(=O)Oc1cccc(COc2ccc3nc4ccc(=O)cc-4oc3c2)c1", "note": "[compound 2, 3-(((3-oxo-3H-phenoxazin-7-yl)oxy)methyl)phenyl acetate]", "values": [
      {"measurement": "Km", "result": 44.3, "unit": "µM"}
    ]}
  ]
}
